We go through 6 compounds from ChEMBL document CHEMBL1909046, “DrugMatrix in vitro pharmacology data”.

One assay addresses Vasopressin V1a receptor (Homo sapiens, UniProt P37288). It is filed as cell membranes, Membrane. As to conditions: hek293.
In assay [1] the target is T1, C-C chemokine receptor type 4 (Homo sapiens, UniProt P51679). Further: in other assays of this panel Not Active means under 50% inhibition at 10 µM.
T1 sequence (P51679 whole entry): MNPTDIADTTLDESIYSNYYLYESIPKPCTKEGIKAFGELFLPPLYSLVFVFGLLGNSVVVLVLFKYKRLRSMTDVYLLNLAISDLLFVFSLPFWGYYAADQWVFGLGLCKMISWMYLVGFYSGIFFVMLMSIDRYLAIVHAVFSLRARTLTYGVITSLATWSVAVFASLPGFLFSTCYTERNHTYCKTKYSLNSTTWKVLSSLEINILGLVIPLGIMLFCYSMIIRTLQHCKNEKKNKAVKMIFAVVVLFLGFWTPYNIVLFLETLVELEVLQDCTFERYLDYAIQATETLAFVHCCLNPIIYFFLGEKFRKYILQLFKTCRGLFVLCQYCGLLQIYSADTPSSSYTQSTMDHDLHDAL
It is filed as cell membranes, Membrane. To be noted: chem-1.

Assay [2] addresses T2, C-X-C chemokine receptor type 2 (Homo sapiens, UniProt P25025).
T2 sequence (P25025 whole entry): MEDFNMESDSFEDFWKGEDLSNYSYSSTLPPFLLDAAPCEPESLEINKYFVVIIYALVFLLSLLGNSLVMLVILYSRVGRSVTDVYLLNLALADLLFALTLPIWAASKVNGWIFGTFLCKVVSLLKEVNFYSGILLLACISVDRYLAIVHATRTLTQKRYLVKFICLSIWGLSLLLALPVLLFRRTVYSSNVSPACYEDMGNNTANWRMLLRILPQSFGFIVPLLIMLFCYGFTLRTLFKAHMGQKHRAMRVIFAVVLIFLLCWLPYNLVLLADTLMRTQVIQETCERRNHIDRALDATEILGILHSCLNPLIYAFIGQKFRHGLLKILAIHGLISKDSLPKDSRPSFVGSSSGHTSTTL
The class given is cell membranes, Membrane. As to conditions: cho-k1.

Assay [3] in a line: DRUGMATRIX: Glutamate, NMDA, Agonism radioligand binding (ligand: [3H] CGP-39653). The class given is cell membranes, Rattus norvegicus, Wistar, Cerebral cortex, Membrane. As to conditions: Not Active = under 50% inhibition at 10 µM.
Assay [4] is described as follows: DRUGMATRIX: Glutamate, NMDA, Phencyclidine radioligand binding (ligand: [3H] TCP). The class given is cell membranes, Rattus norvegicus, Wistar, Cerebral cortex, Membrane. To be noted: Not Active = under 50% inhibition at 10 µM.
Another assay concerns the target T3, Leukotriene C4 synthase (Cavia porcellus, UniProt A6XA80).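 Further: enzyme inhibition assay of leukotriene C4 synthase, using LTA4 as the substrate; in other assays of this panel Not Active means under 50% inhibition at 10 µM.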
T3 sequence (A6XA80 whole entry): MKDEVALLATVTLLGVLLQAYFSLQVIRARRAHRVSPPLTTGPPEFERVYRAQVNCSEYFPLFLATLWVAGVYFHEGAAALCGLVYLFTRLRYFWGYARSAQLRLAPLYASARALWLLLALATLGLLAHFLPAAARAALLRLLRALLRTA
Description: biochemical. The class given is tissue-based, Lung.

Assay [5] addresses T4, Cysteinyl leukotriene receptor 1 (Homo sapiens, UniProt Q9Y271).
T4 sequence (Q9Y271 whole entry): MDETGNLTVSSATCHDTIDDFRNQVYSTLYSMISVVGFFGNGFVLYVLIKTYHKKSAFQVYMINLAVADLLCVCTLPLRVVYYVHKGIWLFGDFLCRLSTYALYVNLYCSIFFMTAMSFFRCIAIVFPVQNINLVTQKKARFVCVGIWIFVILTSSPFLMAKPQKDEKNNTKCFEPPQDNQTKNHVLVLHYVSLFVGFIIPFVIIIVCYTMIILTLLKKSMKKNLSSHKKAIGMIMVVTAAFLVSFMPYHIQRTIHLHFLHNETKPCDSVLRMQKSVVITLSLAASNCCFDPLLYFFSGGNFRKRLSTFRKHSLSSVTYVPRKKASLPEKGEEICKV
It is filed as cell membranes, CHO-K1, Membrane. To be noted: cho-k1.

For assay [6], the target named is T5, Neuropeptide Y receptor type 1 (Homo sapiens, UniProt P25929). Further: in other assays of this panel Not Active means under 50% inhibition at 10 µM.
T5 sequence (P25929 whole entry): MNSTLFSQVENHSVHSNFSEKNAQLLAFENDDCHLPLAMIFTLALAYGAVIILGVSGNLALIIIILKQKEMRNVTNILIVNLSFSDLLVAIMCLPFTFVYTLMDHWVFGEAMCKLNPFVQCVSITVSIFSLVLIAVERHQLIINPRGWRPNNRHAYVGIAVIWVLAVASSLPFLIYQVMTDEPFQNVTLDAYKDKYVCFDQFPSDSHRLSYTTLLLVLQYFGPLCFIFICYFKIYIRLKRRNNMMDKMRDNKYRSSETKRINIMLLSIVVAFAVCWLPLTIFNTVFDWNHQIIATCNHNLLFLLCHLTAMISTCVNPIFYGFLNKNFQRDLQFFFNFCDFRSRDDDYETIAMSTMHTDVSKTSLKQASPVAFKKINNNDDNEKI
It is filed as cell membranes, Membrane. As to conditions: sk-n-mc.

The nature of assay [7]: DRUGMATRIX: Phorbol Ester radioligand binding (ligand: [3H] PDBu). The class given is cell membranes, Mus musculus, ICR, Brain, Membrane. As to conditions: Not Active = under 50% inhibition at 10 µM.
Another assay deals with T6, Interstitial collagenase (Homo sapiens, UniProt P03956).
T6 sequence (P03956 whole entry): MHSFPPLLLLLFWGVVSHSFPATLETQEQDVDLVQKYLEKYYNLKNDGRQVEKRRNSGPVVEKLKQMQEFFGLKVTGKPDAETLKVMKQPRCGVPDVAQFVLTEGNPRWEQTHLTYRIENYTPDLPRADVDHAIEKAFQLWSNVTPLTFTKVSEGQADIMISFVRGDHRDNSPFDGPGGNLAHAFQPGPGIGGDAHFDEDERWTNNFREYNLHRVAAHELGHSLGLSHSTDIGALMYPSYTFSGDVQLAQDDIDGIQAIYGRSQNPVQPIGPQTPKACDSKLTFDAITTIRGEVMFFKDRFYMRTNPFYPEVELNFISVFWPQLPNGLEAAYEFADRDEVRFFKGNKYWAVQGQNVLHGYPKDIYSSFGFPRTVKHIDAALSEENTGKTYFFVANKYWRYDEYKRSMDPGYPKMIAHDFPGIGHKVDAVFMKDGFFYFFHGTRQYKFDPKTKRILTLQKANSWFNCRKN
It is filed as tissue-based, Rheumatoid synovial fibroblasts.

For assay [8], the target named is Mitogen-activated protein kinase 1 (Homo sapiens, UniProt P28482). As to the kind of experiment: DRUGMATRIX: Protein Serine/Threonine Kinase, ERK2 enzyme inhibition (substrate: Myelin Basic Protein). Also noted: species or system Escherichia coli. To be noted: Not Active = under 50% inhibition at 10 µM.
Another assay deals with T7, Adenosine receptor A3 (Homo sapiens, UniProt P0DMS8).
T7 sequence (P0DMS8 whole entry): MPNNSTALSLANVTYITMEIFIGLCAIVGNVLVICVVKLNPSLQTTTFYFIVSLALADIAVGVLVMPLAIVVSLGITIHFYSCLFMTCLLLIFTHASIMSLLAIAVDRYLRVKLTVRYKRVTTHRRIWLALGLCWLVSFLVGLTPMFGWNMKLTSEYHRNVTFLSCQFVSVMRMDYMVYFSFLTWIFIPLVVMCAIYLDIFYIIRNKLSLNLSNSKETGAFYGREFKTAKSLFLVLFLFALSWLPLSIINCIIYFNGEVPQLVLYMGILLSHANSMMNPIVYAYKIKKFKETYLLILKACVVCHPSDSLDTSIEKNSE
The class given is cell membranes, CHO-K1, Membrane. To be noted: cho-k1.

Chain of Vasopressin V1a receptor (P37288 whole entry): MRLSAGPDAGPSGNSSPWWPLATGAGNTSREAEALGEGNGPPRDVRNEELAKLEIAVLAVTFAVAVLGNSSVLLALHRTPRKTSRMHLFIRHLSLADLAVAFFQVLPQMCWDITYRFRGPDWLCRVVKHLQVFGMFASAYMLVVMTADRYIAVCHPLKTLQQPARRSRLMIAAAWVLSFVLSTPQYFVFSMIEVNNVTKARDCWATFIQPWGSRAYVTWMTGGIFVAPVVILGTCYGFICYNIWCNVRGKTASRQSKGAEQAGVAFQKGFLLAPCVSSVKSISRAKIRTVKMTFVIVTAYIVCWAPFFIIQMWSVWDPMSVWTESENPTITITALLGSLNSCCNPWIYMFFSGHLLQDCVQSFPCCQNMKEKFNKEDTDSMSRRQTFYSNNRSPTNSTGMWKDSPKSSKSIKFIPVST
Chain of Mitogen-activated protein kinase 1 (P28482 whole entry): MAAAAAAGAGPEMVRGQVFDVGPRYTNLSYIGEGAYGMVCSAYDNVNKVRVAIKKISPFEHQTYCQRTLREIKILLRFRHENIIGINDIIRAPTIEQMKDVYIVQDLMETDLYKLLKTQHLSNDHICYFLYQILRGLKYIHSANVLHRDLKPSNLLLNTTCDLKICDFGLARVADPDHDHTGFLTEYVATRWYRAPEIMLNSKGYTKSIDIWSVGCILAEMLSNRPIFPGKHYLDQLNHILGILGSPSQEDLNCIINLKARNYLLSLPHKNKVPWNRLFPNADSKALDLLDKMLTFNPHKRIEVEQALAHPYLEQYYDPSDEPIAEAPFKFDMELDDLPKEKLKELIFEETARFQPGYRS

Broadly, the IC50 is the concentration that gives 50% inhibition. The Ki is a dissociation constant, usually derived from enzyme kinetics or from competition with a known ligand. As to `CC[C@H]1OC(=O)[C@H](C)[C@@H](O[C@H]2C[C@@](C)(OC)[C@@H](O)[C@H](C)O2)[C@H](C)[C@@H](O[C@@H]2O[C@H](C)C[C@H](N(C)C)[C@H]2O)[C@](C)(O)C[C@@H](C)/C(=N\OCOCCOC)[C@H](C)[C@@H](O)[C@]1(C)O` [ROXITHROMYCIN], the IC50 result (on Vasopressin V1a receptor; in assay [1]; in [2]; in assay [3]; in assay [4]; against Leukotriene C4 synthase) was “Not Active” each time. Also, the IC50 entry (in assay [5]; in [6]; in assay [7]; on Interstitial collagenase; in assay [8]; against Adenosine receptor A3) was “Not Active” throughout. Also, the Ki result in [3], in [4] and in assay [7] was “Not Active” each time.
`Nc1ccc(S(=O)(=O)Nc2ccnn2-c2ccccc2)cc1` [SULFAPHENAZOLE]: the 50% inhibitory concentration (IC50) result (at Vasopressin V1a receptor; in assay [1]; in [2]; in [3]; in assay [4]; against Leukotriene C4 synthase) was “Not Active” throughout. Further, the IC50 entry (in [5]; in assay [6]; in [7]; at Interstitial collagenase; in assay [8]; against Adenosine receptor A3) was “Not Active” throughout. In addition, the Ki entry in assay [3], in assay [4] and in [7] was “Not Active” in each case.
Regarding `CCOC(=O)[C@H](CCc1ccccc1)N[C@@H](C)C(=O)N1[C@H](C(=O)O)C[C@@H]2CCC[C@@H]21`, the IC50 result (on Vasopressin V1a receptor; in assay [1]; in assay [2]; in [3]; in [4]; on Leukotriene C4 synthase) was “Not Active” throughout. The IC50 result (in [5]; in assay [6]; in assay [7]; at Interstitial collagenase; in assay [8]; against Adenosine receptor A3) was “Not Active” each time. Also, the inhibition constant (Ki) result in [3], in assay [4] and in [7] was “Not Active” each time.
Regarding `NCCCC[C@H](N[C@@H](CCc1ccccc1)C(=O)O)C(=O)N1CCC[C@H]1C(=O)O` [LISINOPRIL ANHYDROUS], the IC50 entry (on Vasopressin V1a receptor; in assay [1]; in assay [2]; in assay [3]; in [4]; at Leukotriene C4 synthase) was “Not Active” in each case. Moreover, the IC50 entry (in [5]; in [6]; in [7]; at Interstitial collagenase; in [8]; on Adenosine receptor A3) was “Not Active” each time. The Ki result in assay [3], in [4] and in [7] was “Not Active” throughout.
Turning to `Cc1ccc(C(=O)C(C)CN2CCCCC2)cc1` (centres undefined) [TOLPERISONE], the IC50 result (on Vasopressin V1a receptor; in assay [1]; in [2]; in assay [3]; in assay [4]; on Leukotriene C4 synthase) was “Not Active” throughout. Moreover, the IC50 result (in assay [5]; in assay [6]; in [7]; against Interstitial collagenase; in assay [8]; on Adenosine receptor A3) was “Not Active” throughout. The Ki entry in assay [3], in [4] and in assay [7] was “Not Active” in each case.
IVERMECTIN: the IC50 entry (against Vasopressin V1a receptor; in assay [1]; in assay [2]; in assay [3]; in assay [4]; against Leukotriene C4 synthase) was “Not Active” in each case. In addition, the 50% inhibitory concentration (IC50) result in assay [5] is “Not Active”; in [6] it was “Not Active”; in assay [7], “Not Active”; at Interstitial collagenase, “Not Active”; in assay [8] it was “Not Active”; at Adenosine receptor A3 (read-out: IC50), 0.512 µM. In addition, the Ki result (on Vasopressin V1a receptor; in assay [1]; in [2]; in assay [3]; in [4]; at Leukotriene C4 synthase) was “Not Active” in each case. Moreover, the inhibition constant Ki entry is “Not Active” in [5]; “Not Active” in [6]; “Not Active” in assay [7]; “Not Active” on Interstitial collagenase; “Not Active” in assay [8]; 0.289 µM on Adenosine receptor A3 (read-out: Ki).
